≈ marks a conversion by molar mass, not a printed value.
What was measured:
[1] = system: S. cerevisiae
[2] = system: Mtb strain mc^2-7000; assay: microbe, parasite or virus in culture; type: cell-based, Mycobacterium tuberculosis; settings: Mycobacterium tuberculosis, 144 h; 6 days incubation at 37° C., resazurin, read on the 7th day; read-out: MIC
[3] = system: human fibroblast
[4] = target: Mtb AccD6 (Mycobacterium tuberculosis, UniProt P9WQH5); assay: biochemical; type: biochemical; settings: for IC50: 300 μM malonyl-CoA, inhibitor 10 μM to 2000 μM, read-out: IC50
Sequence of Mtb AccD6 (P9WQH5 whole entry, looked up): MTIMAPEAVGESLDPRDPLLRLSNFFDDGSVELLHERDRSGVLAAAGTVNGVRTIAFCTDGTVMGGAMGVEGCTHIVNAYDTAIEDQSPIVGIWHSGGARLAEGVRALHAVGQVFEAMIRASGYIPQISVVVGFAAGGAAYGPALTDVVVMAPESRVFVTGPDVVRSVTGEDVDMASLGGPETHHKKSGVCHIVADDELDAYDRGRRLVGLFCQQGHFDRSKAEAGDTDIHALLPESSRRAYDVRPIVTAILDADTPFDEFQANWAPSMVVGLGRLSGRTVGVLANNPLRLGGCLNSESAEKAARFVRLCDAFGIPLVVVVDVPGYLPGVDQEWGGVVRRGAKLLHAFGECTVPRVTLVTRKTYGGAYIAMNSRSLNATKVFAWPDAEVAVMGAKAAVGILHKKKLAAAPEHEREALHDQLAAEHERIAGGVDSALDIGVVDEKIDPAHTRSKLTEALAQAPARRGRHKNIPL

CONC(=O)C(C)c1ccc(Oc2nc3ccc(F)cc3s2)cc1 (racemic) [NZ-330, 2-{4-[(6-fluoro-1,3-benzothiazol-2-yl)oxy]phenyl}-N-methoxypropanamide]
concentrations at which not toxic, s. cerevisiae cytotoxicity [1]: ≥ 100 µM
MIC [2]: 1.5 µM (≈ 0.52 µg/mL)
concentrations at which not toxic, human fibroblast cytotoxicity [3]: ≥ 100 µM
IC50 [4]: 0.24 µM

CCOC(=O)[C@@H](C)Oc1ccc(Oc2nc3ccc(F)cc3s2)cc1 [NZ-251, ethyl (2R)-2-{4-[(6-fluoro-1,3-benzothiazol-2-yl)oxy]phenoxy}propanoate]
concentrations at which not toxic, s. cerevisiae cytotoxicity [1]: ≥ 100 µM
MIC [2]: 0.23 µM (≈ 0.0831 µg/mL)
concentrations at which not toxic, human fibroblast cytotoxicity [3]: ≥ 100 µM

CONC(=O)COc1ccc(Oc2cnc3cc(Cl)ccc3n2)cc1 [NZ-274, 2-{4-[(6-chloroquinoxalin-2-yl)oxy]phenoxy}-N-methoxyacetamide]
concentrations at which not toxic, s. cerevisiae cytotoxicity [1]: ≥ 100 µM
MIC [2]: 0.173 µM (≈ 0.0622 µg/mL)
concentrations at which not toxic, human fibroblast cytotoxicity [3]: ≥ 100 µM
IC50 [4]: 3.7 µM

O=C(O)Cc1ccc(Oc2nc3ccc(Cl)cc3s2)cc1 [NZ-287, 2-{4-[(6-chloro-1,3-benzothiazol-2-yl)oxy]phenyl}acetic acid]
concentrations at which not toxic, s. cerevisiae cytotoxicity [1]: ≥ 100 µM
MIC [2]: 12 µM (≈ 3.84 µg/mL)
concentrations at which not toxic, human fibroblast cytotoxicity [3]: ≥ 100 µM
IC50 [4]: 0.52 µM

CON(C)C(=O)COc1ccc(Oc2cnc3cc(Cl)ccc3n2)cc1 [NZ-290, 2-{4-[(6-chloroquinoxalin-2-yl)oxy]phenoxy}-N-methoxy-N-methylacetamide]
concentrations at which not toxic, s. cerevisiae cytotoxicity [1]: ≥ 100 µM
MIC [2]: 1.5 µM (≈ 0.561 µg/mL)
concentrations at which not toxic, human fibroblast cytotoxicity [3]: ≥ 100 µM
IC50 [4]: 2.5 µM

CONC(=O)Cc1ccc(Oc2nc3ccc(Cl)cc3s2)cc1 [NZ-293, 2-{4-[(6-chloro-1,3-benzothiazol-2-yl)oxy]phenyl}-N-methoxyacetamide]
concentrations at which not toxic, s. cerevisiae cytotoxicity [1]: ≥ 100 µM
MIC [2]: 3 µM (≈ 1.05 µg/mL)
concentrations at which not toxic, human fibroblast cytotoxicity [3]: ≥ 100 µM
IC50 [4]: 1 µM

COC(=O)Cc1ccc(Oc2nc3ccc(F)cc3s2)cc1 [NZ-294, methyl 2-{4-[(6-fluoro-1,3-benzothiazol-2-yl)oxy]phenyl}acetate]
concentrations at which not toxic, s. cerevisiae cytotoxicity [1]: ≥ 100 µM
MIC [2]: 3 µM
concentrations at which not toxic, human fibroblast cytotoxicity [3]: ≥ 100 µM
IC50 [4]: 12.5 µM

CONC(=O)[C@@H](C)Oc1ccc(Oc2cnc3cc(Cl)ccc3n2)cc1 [NZ-295, (2R)-2-{4-[(6-chloroquinoxalin-2-yl)oxy]phenoxy}-N-methoxypropanamide]
concentrations at which not toxic, s. cerevisiae cytotoxicity [1]: ≥ 100 µM
MIC [2]: 4.5 µM (≈ 1.68 µg/mL)
concentrations at which not toxic, human fibroblast cytotoxicity [3]: ≥ 100 µM
IC50 [4]: 0.93 µM

O=C(O)Cc1ccc(Oc2cnc3cc(Cl)ccc3n2)cc1 [NZ-298, 2-{4-[(6-chloroquinoxalin-2-yl)oxy]phenyl}acetic acid]
concentrations at which not toxic, s. cerevisiae cytotoxicity [1]: ≥ 100 µM
MIC [2]: 25 µM (≈ 7.87 µg/mL)
concentrations at which not toxic, human fibroblast cytotoxicity [3]: ≥ 100 µM
IC50 [4]: 0.28 µM

O=C(O)Cc1ccc(Oc2nc3ccc(F)cc3s2)cc1 [NZ-299, 2-{4-[(6-fluoro-1,3-benzothiazol-2-yl)oxy]phenyl}acetic acid]
concentrations at which not toxic, s. cerevisiae cytotoxicity [1]: ≥ 100 µM
MIC [2]: 12 µM (≈ 3.64 µg/mL)
concentrations at which not toxic, human fibroblast cytotoxicity [3]: ≥ 100 µM
IC50 [4]: 0.324 µM

CONC(=O)Cc1ccc(Oc2nc3ccc(F)cc3s2)cc1 [NZ-300, 2-{4-[(6-fluoro-1,3-benzothiazol-2-yl)oxy]phenyl}-N-methoxyacetamide]
concentrations at which not toxic, s. cerevisiae cytotoxicity [1]: ≥ 100 µM
MIC [2]: 7.5 µM (≈ 2.49 µg/mL)
concentrations at which not toxic, human fibroblast cytotoxicity [3]: ≥ 100 µM
IC50 [4]: 0.82 µM

CONC(=O)Cc1ccc(Oc2cnc3cc(Cl)ccc3n2)cc1 [NZ-301, 2-{4-[(6-chloroquinoxalin-2-yl)oxy]phenyl}-N-methoxyacetamide]
concentrations at which not toxic, s. cerevisiae cytotoxicity [1]: ≥ 100 µM
MIC [2]: 12 µM (≈ 4.13 µg/mL)
concentrations at which not toxic, human fibroblast cytotoxicity [3]: ≥ 100 µM
IC50 [4]: 0.265 µM

O=C(O)COc1ccc(Oc2nc3ccc(F)cc3s2)cc1 [NZ-304, 2-{4-[(6-fluoro-1,3-benzothiazol-2-yl)oxy]phenoxy}acetic acid]
concentrations at which not toxic, s. cerevisiae cytotoxicity [1]: ≥ 100 µM
MIC [2]: 25 µM (≈ 7.98 µg/mL)
concentrations at which not toxic, human fibroblast cytotoxicity [3]: ≥ 100 µM
IC50 [4]: 3.4 µM

CONC(=O)COc1ccc(Oc2nc3ccc(F)cc3s2)cc1 [NZ-305, 2-{4-[(6-fluoro-1,3-benzothiazol-2-yl)oxy]phenoxy}-N-methoxyacetamide]
concentrations at which not toxic, s. cerevisiae cytotoxicity [1]: ≥ 100 µM
MIC [2]: 3 µM (≈ 1.05 µg/mL)
concentrations at which not toxic, human fibroblast cytotoxicity [3]: ≥ 100 µM
inhibition at 15 µM ([4]; 15 uM): 50%

CCNC(=O)COc1ccc(Oc2cnc3cc(Cl)ccc3n2)cc1 [NZ-306, 2-{4-[(6-chloroquinoxalin-2-yl)oxy]phenoxy}-N-ethylacetamide]
concentrations at which not toxic, s. cerevisiae cytotoxicity [1]: ≥ 100 µM
MIC [2]: 25 µM (≈ 8.94 µg/mL)
concentrations at which not toxic, human fibroblast cytotoxicity [3]: ≥ 100 µM
IC50 [4]: 4.6 µM

CC(C)NC(=O)COc1ccc(Oc2cnc3cc(Cl)ccc3n2)cc1 [NZ-307, 2-{4-[(6-chloroquinoxalin-2-yl)oxy]phenoxy}-N-(propan-2-yl)acetamide]
concentrations at which not toxic, s. cerevisiae cytotoxicity [1]: ≥ 100 µM
MIC [2]: 3 µM (≈ 1.12 µg/mL)
concentrations at which not toxic, human fibroblast cytotoxicity [3]: ≥ 100 µM
IC50 [4]: 2.5 µM

COC(=O)C(C)c1ccc(Oc2cnc3cc(Cl)ccc3n2)cc1 (centres unmarked) [NZ-308, methyl 2-{4-[(6-chloroquinoxalin-2-yl)oxy]phenyl}propanoate]
concentrations at which not toxic, s. cerevisiae cytotoxicity [1]: ≥ 100 µM
MIC [2]: 4.5 µM (≈ 1.54 µg/mL)
concentrations at which not toxic, human fibroblast cytotoxicity [3]: ≥ 100 µM
IC50 [4]: 8 µM

CC(C(=O)O)c1ccc(Oc2cnc3cc(Cl)ccc3n2)cc1 (centres unmarked) [NZ-309, 2-{4-[(6-chloroquinoxalin-2-yl)oxy]phenyl}propanoic acid]
concentrations at which not toxic, s. cerevisiae cytotoxicity [1]: ≥ 100 µM
MIC [2]: 12 µM (≈ 3.95 µg/mL)
concentrations at which not toxic, human fibroblast cytotoxicity [3]: ≥ 100 µM
IC50 [4]: 0.172 µM

CONC(=O)C(C)c1ccc(Oc2cnc3cc(Cl)ccc3n2)cc1 (centres unmarked) [NZ-310, 2-{4-[(6-chloroquinoxalin-2-yl)oxy]phenyl}-N-methoxypropanamide]
concentrations at which not toxic, s. cerevisiae cytotoxicity [1]: ≥ 100 µM
MIC [2]: 6 µM (≈ 2.15 µg/mL)
concentrations at which not toxic, human fibroblast cytotoxicity [3]: ≥ 100 µM
IC50 [4]: 0.182 µM

CC(C(=O)O)c1ccc(Oc2nc3ccc(Cl)cc3s2)cc1 (centres unmarked) [NZ-312, 2-{4-[(6-chloro-1,3-benzothiazol-2-yl)oxy]phenyl}propanoic acid]
concentrations at which not toxic, s. cerevisiae cytotoxicity [1]: ≥ 100 µM
MIC [2]: 6 µM (≈ 2 µg/mL)
concentrations at which not toxic, human fibroblast cytotoxicity [3]: ≥ 100 µM
IC50 [4]: 0.26 µM

COC(=O)C(C)(C)Oc1ccc(Oc2cnc3cc(Cl)ccc3n2)cc1 [NZ-314, methyl 2-{4-[(6-chloroquinoxalin-2-yl)oxy]phenoxy}-2-methylpropanoate]
concentrations at which not toxic, s. cerevisiae cytotoxicity [1]: ≥ 100 µM
MIC [2]: 6 µM (≈ 2.24 µg/mL)
concentrations at which not toxic, human fibroblast cytotoxicity [3]: ≥ 100 µM
IC50 [4]: 17.5 µM

CONC(=O)C(C)(C)Oc1ccc(Oc2cnc3cc(Cl)ccc3n2)cc1 [NZ-316, 2-{4-[(6-chloroquinoxalin-2-yl)oxy]phenoxy}-N-methoxy-2-methylpropanamide]
concentrations at which not toxic, s. cerevisiae cytotoxicity [1]: ≥ 100 µM
MIC [2]: 6 µM (≈ 2.33 µg/mL)
concentrations at which not toxic, human fibroblast cytotoxicity [3]: ≥ 100 µM

COC(=O)C(C)(C)Oc1ccc(Oc2nc3ccc(Cl)cc3s2)cc1 [NZ-317, methyl 2-{4-[(6-chloro-1,3-benzothiazol-2-yl)oxy]phenoxy}-2-methylpropanoate]
concentrations at which not toxic, s. cerevisiae cytotoxicity [1]: ≥ 100 µM
MIC [2]: 6 µM (≈ 2.27 µg/mL)
concentrations at which not toxic, human fibroblast cytotoxicity [3]: ≥ 100 µM

CONC(=O)C(C)c1ccc(Oc2nc3ccc(OC)cc3s2)cc1 (centres unmarked) [NZ-335, N-methoxy-2-{4-[(6-methoxy-1,3-benzothiazol-2-yl)oxy]phenyl}propanamide]
concentrations at which not toxic, s. cerevisiae cytotoxicity [1]: ≥ 100 µM
MIC [2]: 12 µM (≈ 4.3 µg/mL)
concentrations at which not toxic, human fibroblast cytotoxicity [3]: ≥ 100 µM

COC(=O)C(O)c1ccc(Oc2nc3ccc(Cl)cc3s2)cc1 (centres unmarked) [NZ-336, methyl 2-{4-[(6-chloro-1,3-benzothiazol-2-yl)oxy]phenyl}-2-hydroxyacetate]
concentrations at which not toxic, s. cerevisiae cytotoxicity [1]: 50 to 100 µM
MIC [2]: 12 µM (≈ 4.2 µg/mL)
concentrations at which not toxic, human fibroblast cytotoxicity [3]: 50 to 100 µM

CC(C)NC(=O)Nc1ccc(Oc2nc3cc(Cl)c(Cl)cc3s2)cc1 [NZ-393, 1-{4-[(5,6-dichloro-1,3-benzothiazol-2-yl)oxy]phenyl}-3-(propan-2-yl)urea]
concentrations at which not toxic, s. cerevisiae cytotoxicity [1]: ≥ 100 µM
concentrations at which not toxic, human fibroblast cytotoxicity [3]: ≥ 100 µM
IC50 [4]: 5.07 µM
